From patent US10670605B2, “Cysteine reactive probes and uses thereof” (The Scripps Research Institute, priority 2015, dated 2020)
Each block holds one molecule with its values, some of them ahead of it.

Assays:
Experiment in all cases: Competitive isoTOP-ABPP in situ (fragment-treated cells)
Assay type in all cases: cell-based
[1] = target: T1, cysteines in MDA-MB-231 and Ramos cells (Homo sapiens, UniProt P29590); conditions: 200 μM, insitu, 231
T1 sequence (P29590 1-882): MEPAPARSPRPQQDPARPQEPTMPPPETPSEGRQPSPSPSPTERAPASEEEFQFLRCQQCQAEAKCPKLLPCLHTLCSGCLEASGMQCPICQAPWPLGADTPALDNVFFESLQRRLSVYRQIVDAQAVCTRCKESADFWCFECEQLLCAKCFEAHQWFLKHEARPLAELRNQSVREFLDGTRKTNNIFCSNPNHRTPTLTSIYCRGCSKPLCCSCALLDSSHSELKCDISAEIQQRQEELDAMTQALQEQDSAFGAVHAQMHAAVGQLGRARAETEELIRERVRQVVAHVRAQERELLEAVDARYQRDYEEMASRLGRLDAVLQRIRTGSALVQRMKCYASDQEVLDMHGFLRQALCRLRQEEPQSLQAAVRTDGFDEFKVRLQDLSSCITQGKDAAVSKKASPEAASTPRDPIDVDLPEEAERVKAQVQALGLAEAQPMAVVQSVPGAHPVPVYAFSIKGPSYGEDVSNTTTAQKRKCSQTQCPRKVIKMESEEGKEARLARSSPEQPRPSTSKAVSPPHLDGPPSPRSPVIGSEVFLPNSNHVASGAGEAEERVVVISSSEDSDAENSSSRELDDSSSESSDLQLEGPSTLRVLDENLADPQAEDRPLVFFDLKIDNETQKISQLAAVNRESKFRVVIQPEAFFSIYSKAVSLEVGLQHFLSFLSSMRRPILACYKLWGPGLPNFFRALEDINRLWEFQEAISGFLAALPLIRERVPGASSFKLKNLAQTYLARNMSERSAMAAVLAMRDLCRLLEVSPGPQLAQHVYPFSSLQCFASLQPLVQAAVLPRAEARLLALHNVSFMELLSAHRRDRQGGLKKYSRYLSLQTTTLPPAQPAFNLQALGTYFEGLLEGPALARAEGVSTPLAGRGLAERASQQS

[2] = target: cysteines in MDA-MB-231 and Ramos cells (Homo sapiens, UniProt Q5MNZ6)
[3] = target: T2, cysteines in MDA-MB-231 and Ramos cells (Homo sapiens, UniProt Q9NX18); conditions: for isoTOP-ABPP ratio Q9NX18_C83: 200 μM, insitu
T2 sequence (Q9NX18 30-166): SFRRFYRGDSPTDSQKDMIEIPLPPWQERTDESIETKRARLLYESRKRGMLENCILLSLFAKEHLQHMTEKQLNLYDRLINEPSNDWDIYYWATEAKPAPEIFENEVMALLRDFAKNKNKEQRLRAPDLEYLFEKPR

[4] = target: cysteines in MDA-MB-231 and Ramos cells (Homo sapiens, UniProt P52948); conditions: 200 μM, insitu, 231
[5] = target: cysteines in MDA-MB-231 and Ramos cells (Homo sapiens, UniProt Q96EY5)
[6] = target: T3, cysteines in MDA-MB-231 and Ramos cells (Homo sapiens, UniProt Q9NXV6); conditions: 200 μM, insitu
T3 sequence (Q9NXV6 1-580): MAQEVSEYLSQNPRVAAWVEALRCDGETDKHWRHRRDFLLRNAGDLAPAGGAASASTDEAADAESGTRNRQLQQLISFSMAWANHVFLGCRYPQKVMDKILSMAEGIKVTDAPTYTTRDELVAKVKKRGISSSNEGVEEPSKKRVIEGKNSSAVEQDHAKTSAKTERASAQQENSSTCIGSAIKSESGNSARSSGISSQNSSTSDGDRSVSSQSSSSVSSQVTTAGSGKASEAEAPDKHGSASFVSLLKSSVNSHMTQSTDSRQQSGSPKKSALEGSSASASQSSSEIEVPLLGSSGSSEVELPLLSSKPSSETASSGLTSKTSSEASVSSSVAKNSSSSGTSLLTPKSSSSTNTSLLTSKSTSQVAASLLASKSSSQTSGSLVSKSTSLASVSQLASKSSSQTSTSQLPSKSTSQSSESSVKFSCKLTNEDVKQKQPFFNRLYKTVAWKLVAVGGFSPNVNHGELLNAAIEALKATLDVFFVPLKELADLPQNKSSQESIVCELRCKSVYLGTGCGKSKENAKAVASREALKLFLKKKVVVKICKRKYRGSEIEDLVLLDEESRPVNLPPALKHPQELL

[7] = target: T4, cysteines in MDA-MB-231 and Ramos cells (Homo sapiens, UniProt A0AVT1)
T4 sequence (A0AVT1 1-1052): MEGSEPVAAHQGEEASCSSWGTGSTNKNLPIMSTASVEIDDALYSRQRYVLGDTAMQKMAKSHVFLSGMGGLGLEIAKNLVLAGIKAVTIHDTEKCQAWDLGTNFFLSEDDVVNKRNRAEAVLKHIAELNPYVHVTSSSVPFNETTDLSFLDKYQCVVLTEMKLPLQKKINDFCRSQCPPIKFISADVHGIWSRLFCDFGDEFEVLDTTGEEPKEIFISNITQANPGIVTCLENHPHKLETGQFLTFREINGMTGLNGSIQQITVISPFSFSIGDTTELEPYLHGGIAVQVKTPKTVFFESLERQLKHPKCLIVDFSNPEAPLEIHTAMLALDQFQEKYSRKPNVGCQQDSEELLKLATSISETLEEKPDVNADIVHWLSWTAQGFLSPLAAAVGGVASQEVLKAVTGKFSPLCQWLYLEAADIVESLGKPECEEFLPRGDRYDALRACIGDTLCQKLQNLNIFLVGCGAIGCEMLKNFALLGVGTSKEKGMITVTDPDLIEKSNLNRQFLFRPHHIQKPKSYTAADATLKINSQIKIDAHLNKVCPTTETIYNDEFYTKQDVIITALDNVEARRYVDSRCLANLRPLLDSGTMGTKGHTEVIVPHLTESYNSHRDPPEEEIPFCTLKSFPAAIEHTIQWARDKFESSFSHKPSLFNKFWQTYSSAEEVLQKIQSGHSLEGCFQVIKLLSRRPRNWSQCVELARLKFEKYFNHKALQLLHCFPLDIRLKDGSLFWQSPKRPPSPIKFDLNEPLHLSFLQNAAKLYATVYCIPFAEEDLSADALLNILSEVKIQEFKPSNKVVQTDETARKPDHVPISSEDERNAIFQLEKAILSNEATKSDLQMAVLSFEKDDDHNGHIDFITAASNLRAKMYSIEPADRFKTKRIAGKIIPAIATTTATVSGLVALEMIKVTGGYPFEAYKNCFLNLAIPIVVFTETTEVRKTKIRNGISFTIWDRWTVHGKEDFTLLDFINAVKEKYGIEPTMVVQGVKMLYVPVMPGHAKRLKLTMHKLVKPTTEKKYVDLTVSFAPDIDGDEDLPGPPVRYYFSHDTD

Sequence of cysteines in MDA-MB-231 and Ramos cells (Homo sapiens, UniProt Q5MNZ6) (Q5MNZ6 whole entry): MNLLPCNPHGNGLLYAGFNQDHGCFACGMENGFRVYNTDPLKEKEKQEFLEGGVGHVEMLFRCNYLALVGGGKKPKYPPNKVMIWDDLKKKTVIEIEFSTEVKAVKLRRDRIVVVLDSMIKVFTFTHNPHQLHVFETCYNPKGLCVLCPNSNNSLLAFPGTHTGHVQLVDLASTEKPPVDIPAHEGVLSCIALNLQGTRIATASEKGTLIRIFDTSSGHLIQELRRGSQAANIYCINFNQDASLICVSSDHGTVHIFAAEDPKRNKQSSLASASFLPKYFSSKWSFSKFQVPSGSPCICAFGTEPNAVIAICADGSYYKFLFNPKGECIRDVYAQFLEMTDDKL
Sequence of cysteines in MDA-MB-231 and Ramos cells (Homo sapiens, UniProt P52948) (P52948 whole entry): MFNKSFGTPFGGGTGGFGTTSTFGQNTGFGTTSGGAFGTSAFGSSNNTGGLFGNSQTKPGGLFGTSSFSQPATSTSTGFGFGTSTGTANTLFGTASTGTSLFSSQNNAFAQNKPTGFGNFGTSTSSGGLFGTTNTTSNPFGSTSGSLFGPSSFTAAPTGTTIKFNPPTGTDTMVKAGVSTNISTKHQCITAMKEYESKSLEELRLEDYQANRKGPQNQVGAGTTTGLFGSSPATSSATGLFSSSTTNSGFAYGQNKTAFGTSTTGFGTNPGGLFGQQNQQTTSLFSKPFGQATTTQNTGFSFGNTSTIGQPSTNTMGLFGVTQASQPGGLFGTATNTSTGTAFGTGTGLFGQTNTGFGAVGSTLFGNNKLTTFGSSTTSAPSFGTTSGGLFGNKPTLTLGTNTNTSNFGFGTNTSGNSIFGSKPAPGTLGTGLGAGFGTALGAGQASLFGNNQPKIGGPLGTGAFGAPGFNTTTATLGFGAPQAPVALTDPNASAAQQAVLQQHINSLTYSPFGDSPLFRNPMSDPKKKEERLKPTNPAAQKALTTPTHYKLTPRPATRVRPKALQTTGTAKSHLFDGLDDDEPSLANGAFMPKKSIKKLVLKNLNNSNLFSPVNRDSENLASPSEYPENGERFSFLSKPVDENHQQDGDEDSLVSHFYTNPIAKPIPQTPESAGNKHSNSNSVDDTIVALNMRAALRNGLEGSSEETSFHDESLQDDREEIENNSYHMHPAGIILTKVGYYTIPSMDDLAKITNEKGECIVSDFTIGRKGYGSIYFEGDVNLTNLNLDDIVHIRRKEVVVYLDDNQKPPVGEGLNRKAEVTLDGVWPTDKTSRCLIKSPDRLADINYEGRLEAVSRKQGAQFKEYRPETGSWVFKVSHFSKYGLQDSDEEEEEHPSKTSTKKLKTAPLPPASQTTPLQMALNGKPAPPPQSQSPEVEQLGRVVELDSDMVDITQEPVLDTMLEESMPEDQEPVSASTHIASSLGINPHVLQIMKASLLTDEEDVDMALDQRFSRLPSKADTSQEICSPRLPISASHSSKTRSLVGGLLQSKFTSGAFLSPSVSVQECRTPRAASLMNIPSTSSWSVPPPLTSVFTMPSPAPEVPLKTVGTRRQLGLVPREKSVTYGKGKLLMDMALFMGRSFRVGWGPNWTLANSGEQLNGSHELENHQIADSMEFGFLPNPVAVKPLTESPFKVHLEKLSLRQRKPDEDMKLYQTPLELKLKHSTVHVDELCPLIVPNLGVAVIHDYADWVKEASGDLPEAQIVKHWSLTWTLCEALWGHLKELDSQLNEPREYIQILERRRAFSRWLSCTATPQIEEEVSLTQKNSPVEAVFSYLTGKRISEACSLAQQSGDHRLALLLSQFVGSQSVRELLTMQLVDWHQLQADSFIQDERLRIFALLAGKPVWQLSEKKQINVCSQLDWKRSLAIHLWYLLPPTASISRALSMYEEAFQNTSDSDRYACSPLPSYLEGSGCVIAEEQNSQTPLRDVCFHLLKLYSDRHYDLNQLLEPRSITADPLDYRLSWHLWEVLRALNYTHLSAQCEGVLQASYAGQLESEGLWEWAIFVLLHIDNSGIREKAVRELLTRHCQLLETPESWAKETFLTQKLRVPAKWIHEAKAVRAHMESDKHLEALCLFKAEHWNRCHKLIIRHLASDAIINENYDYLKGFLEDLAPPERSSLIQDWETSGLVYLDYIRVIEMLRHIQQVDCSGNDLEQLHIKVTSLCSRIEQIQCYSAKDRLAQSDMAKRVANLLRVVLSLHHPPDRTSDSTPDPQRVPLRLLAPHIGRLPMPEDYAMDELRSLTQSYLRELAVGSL

isoTOP-ABPP ratio P29590_C389 [1]: 3.4
isoTOP-ABPP ratio Q5MNZ6_C63 ([2]; 200 μM, insitu, 231): 2.6
isoTOP-ABPP ratio Q9NX18_C83 [3]; 231: 3.7
SMILES: CC1CCc2ccccc2N1C(=O)CCl (stereo not shown) [compound 45]

isoTOP-ABPP ratio P29590_C389 [1]: 0.9
isoTOP-ABPP ratio Q9NX18_C83 [3]; 231: 1.0
SMILES: O=C(CCl)Nc1cccc2ncccc12 [compound 51]

isoTOP-ABPP ratio P29590_C389 [1]: 2.2
isoTOP-ABPP ratio P52948_C1312 [4]: 1.3
isoTOP-ABPP ratio Q96EY5_C231 ([5]; 200 μM, insitu, 231): 1.8
isoTOP-ABPP ratio Q9NXV6_C516 [6]; 231: 1.8
SMILES: C=CC(=O)Nc1cc(F)c(N2CCN(C(=O)OC(C)(C)C)CC2)c(F)c1 [compound 38]

isoTOP-ABPP reactivity Q5MNZ6_C63 WDR45L ([2]; 200 μM, insitu, 231): 20.0
SMILES: COc1cc2c(cc1OC)CN(C(=O)CCl)CC2 [compound 8]

isoTOP-ABPP ratio A0AVT1_C347 ([7]; 200 μM, insitu, ramos): 1.9
isoTOP-ABPP ratio P29590_C389 [1]: 1.1
SMILES: C=CC(=O)N(Cc1cccnc1)c1cc(C(F)(F)F)cc(C(F)(F)F)c1 [compound 31]

isoTOP-ABPP ratio, cysteine A0AVT1_C347 ([7]; 200 μM, insitu, 231): 1.3
isoTOP-ABPP ratio P29590_C389 [1]: 1.3
isoTOP-ABPP ratio, cysteine P52948_C1312 [4]: 1.2
isoTOP-ABPP ratio Q5MNZ6_C63 ([2]; 200 μM, insitu, 231): 1.1
isoTOP-ABPP ratio Q9NXV6_C516 [6]; 231: 2.4
isoTOP-ABPP ratio Q9NXV6_C516 ([6]; ramos): 1.6
SMILES: O=C(CCl)NCCc1c[nH]c2ccccc12 [compound 13]

isoTOP-ABPP reactivity A0AVT1_C347 UBA6 ([7]; 200 μM, insitu, 231): 3.3
isoTOP-ABPP reactivity Q96EY5_C231 FAM125A ([5]; 200 μM, insitu, 231): 1.9
isoTOP-ABPP reactivity Q9NXV6_C516 CDKN2AEP [6]; 231: 6.6
SMILES: O=C(CCl)N1CCC(Cc2ccccc2)CC1 [compound 9]

isoTOP-ABPP reactivity A0AVT1_C347 UBA6 ([7]; 100 μM in situ 231): 20.0
isoTOP-ABPP reactivity Q5MNZ6_C63 WDR45L ([2]; 100 μM in situ 231): 2.0
isoTOP-ABPP reactivity Q96EY5_C231 FAM125A ([5]; 100 μM in situ 231): 1.7
isoTOP-ABPP reactivity Q9NX18_C83 SDHAF2 ([3]; 100 μM in situ 231): 3.0
SMILES: COc1ccc(C2CC(c3cccs3)=NN2C(=O)CCl)cc1 (stereo not shown) [compound 4]

isoTOP-ABPP ratio Q96EY5_C231 ([5]; 200 μM, insitu, ramos): 1.1
isoTOP-ABPP ratio Q9NX18_C83 ([3]; ramos): 1.9
isoTOP-ABPP ratio Q9NXV6_C516 ([6]; ramos): 1.1
SMILES: O=C(CCl)N1CCN(CC(=O)N2CCOCC2)CC1 [compound 29]
